Test results published in ChEMBL document CHEMBL3132769, “Fragment growing to retain or alter the selectivity of anchored kinase hinge-binding fragments” (Medchemcomm, 2014).

Columns and labels:
[1] = target: Casein kinase I isoform delta (Homo sapiens) (UniProt P48730); assay: Inhibition of human CK1D catalytic domain expressed in Escherichia coli cell assessed as substrate phosphorylation using fluorescence-labelled peptides as substrate at 0.2 uM after 90 mins by microfluidic peptide phosphorylation assay
[2] = target: Tyrosine-protein kinase BTK (Homo sapiens) (UniProt Q06187); assay: Inhibition of human full length BTK expressed in baculovirus assessed as substrate phosphorylation using fluorescence-labelled peptides as substrate at 420 uM after 90 mins by microfluidic peptide phosphorylation assay
[3] = target: Calcium/calmodulin-dependent protein kinase type II subunit delta (Homo sapiens) (UniProt Q13557); assay: Inhibition of human full length CAMK2D expressed in baculovirus assessed as substrate phosphorylation using fluorescence-labelled peptides as substrate at 420 uM after 90 mins by microfluidic peptide phosphorylation assay
[4] = target: T1, Mitogen-activated protein kinase 13 (Homo sapiens) (UniProt O15264); assay: Inhibition of human full length p38 delta expressed in Escherichia coli cell assessed as substrate phosphorylation using fluorescence-labelled peptides as substrate at 9 uM after 90 mins by microfluidic peptide phosphorylation assay
T1 sequence (whole entry): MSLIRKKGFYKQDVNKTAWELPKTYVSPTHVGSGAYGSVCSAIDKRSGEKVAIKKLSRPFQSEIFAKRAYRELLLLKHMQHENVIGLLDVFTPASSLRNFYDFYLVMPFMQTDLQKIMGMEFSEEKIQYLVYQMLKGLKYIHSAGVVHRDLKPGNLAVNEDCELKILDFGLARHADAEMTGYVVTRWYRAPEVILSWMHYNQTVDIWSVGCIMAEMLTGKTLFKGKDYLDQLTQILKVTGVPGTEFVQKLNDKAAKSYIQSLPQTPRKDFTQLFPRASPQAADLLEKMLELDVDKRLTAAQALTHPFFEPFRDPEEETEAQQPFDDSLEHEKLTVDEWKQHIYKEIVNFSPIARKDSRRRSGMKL

[5] = target: Mitogen-activated protein kinase 1 (Homo sapiens) (UniProt P28482); assay: Inhibition of human full length ERK2 expressed in Escherichia coli cell assessed as substrate phosphorylation using fluorescence-labelled peptides as substrate at 2 uM after 90 mins by microfluidic peptide phosphorylation assay
[6] = target: T2, Serine/threonine-protein kinase DCLK2 (Homo sapiens) (UniProt Q8N568); assay: Inhibition of human full length DCAMKL2 expressed in baculovirus assessed as substrate phosphorylation using fluorescence-labelled peptides as substrate at […] after 90 mins by microfluidic peptide phosphorylation assay
T2 sequence (whole entry): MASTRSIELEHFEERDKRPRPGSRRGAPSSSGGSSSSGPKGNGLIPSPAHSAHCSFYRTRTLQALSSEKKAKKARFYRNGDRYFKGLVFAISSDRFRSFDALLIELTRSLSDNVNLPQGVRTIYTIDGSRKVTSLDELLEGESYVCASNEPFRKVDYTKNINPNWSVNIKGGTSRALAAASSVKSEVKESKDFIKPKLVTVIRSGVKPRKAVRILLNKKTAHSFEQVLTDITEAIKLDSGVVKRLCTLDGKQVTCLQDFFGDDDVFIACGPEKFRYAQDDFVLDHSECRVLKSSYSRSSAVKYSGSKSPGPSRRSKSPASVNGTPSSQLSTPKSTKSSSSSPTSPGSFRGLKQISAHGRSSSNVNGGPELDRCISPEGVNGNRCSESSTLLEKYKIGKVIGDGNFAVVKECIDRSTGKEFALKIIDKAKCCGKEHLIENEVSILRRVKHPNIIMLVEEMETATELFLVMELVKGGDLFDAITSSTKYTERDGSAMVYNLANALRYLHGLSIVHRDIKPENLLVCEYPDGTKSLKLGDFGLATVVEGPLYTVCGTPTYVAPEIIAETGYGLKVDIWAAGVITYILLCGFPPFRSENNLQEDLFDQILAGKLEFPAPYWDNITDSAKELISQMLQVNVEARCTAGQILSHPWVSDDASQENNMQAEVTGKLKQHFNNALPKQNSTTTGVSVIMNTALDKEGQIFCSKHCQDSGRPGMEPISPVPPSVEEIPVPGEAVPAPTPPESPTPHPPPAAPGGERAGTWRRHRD

[7] = target: Tyrosine-protein kinase Fer (Homo sapiens) (UniProt P16591); assay: Inhibition of human FER catalytic domain expressed in baculovirus assessed as substrate phosphorylation using fluorescence-labelled peptides as substrate at 8 uM after 90 mins by microfluidic peptide phosphorylation assay
[8] = target: RAF proto-oncogene serine/threonine-protein kinase (Homo sapiens) (UniProt P04049); assay: Inhibition of human truncated c-Raf expressed in baculovirus assessed as substrate phosphorylation using fluorescence-labelled peptides as substrate at 8 uM after 90 mins by microfluidic peptide phosphorylation assay
[9] = target: T3, Serine/threonine-protein kinase Sgk2 (Homo sapiens) (UniProt Q9HBY8); assay: Inhibition of human full length SGK2 expressed in baculovirus assessed as substrate phosphorylation using fluorescence-labelled peptides as substrate at 70 uM after 90 mins by microfluidic peptide phosphorylation assay
T3 sequence (whole entry): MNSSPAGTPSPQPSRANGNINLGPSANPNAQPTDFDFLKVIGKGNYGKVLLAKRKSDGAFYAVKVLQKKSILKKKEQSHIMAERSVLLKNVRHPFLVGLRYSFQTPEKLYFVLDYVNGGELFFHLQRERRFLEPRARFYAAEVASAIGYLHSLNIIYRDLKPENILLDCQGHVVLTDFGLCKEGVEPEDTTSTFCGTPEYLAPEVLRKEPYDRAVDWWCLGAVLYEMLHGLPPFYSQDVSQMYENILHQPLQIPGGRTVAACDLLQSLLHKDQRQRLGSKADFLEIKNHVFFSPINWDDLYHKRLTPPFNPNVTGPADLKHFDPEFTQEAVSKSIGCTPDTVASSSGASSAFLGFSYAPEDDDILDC

[10] = target: Mitogen-activated protein kinase 1 (Homo sapiens) (UniProt P28482); assay: Inhibition of human full length ERK2 expressed in Escherichia coli cell assessed as substrate phosphorylation using fluorescence-labelled peptides as substrate at 70 uM after 90 mins by microfluidic peptide phosphorylation assay
[11] = target: Protein kinase C beta type (Homo sapiens) (UniProt P05771); assay: Inhibition of human full length PKC beta2 expressed in baculovirus assessed as substrate phosphorylation using fluorescence-labelled peptides as substrate at 1000 uM after 90 mins by microfluidic peptide phosphorylation assay
[12] = target: Fibroblast growth factor receptor 1 (Homo sapiens) (UniProt P11362); assay: Inhibition of human FGFR1 catalytic domain expressed in baculovirus assessed as substrate phosphorylation using fluorescence-labelled peptides as substrate at 1000 uM after 90 mins by microfluidic peptide phosphorylation assay
Sequence of Fibroblast growth factor receptor 1 (Homo sapiens) (P11362 22-822 limits assumed): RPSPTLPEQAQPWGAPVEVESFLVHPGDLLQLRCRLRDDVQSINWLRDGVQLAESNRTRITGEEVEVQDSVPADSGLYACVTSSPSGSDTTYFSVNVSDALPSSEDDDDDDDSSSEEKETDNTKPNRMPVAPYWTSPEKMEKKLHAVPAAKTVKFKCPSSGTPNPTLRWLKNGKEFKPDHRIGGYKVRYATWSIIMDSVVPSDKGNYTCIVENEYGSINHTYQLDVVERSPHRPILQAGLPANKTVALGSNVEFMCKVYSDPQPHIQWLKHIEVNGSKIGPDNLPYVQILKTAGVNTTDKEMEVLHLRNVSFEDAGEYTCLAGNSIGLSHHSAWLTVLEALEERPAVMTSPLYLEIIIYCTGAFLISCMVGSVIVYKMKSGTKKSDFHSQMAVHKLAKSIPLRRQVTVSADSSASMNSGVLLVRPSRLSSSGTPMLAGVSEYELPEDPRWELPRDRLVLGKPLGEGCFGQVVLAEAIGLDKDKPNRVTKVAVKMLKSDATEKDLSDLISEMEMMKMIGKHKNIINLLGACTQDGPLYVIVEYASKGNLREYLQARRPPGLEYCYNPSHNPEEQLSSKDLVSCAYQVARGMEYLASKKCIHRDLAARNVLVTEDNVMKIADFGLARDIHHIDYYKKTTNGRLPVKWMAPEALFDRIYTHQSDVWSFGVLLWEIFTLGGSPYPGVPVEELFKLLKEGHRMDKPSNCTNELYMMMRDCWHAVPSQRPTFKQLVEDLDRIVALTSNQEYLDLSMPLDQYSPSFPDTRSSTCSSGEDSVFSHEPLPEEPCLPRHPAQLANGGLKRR

Sequence of Mitogen-activated protein kinase 1 (Homo sapiens) (P28482 whole entry): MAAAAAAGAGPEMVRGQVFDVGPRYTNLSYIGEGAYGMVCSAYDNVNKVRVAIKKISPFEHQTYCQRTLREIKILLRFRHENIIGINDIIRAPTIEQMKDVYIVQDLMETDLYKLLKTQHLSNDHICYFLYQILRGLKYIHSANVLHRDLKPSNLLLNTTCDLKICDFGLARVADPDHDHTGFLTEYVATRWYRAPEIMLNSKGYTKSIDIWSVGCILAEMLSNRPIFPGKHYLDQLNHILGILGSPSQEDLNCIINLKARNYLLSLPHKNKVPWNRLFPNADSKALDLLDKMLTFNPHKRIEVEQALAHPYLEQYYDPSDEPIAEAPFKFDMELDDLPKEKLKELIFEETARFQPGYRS
Sequence of Protein kinase C beta type (Homo sapiens) (P05771 2-671 limits assumed): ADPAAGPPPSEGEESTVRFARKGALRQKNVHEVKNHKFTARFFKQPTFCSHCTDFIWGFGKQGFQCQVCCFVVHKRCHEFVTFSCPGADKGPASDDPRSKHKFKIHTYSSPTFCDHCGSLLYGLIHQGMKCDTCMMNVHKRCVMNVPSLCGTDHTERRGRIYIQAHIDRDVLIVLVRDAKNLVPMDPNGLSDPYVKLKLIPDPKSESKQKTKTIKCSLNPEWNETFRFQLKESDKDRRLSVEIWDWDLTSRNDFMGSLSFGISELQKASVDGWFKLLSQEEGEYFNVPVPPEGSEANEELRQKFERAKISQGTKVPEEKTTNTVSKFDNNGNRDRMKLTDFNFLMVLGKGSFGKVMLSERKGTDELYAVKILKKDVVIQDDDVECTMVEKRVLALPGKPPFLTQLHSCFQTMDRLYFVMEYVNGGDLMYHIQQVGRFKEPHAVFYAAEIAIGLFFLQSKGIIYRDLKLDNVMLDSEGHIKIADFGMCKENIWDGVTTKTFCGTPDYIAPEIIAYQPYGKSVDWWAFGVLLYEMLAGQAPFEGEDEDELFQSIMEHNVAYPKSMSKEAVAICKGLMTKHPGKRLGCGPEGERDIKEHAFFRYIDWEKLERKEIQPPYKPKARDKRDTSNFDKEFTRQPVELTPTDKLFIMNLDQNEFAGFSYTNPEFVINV
Sequence of Calcium/calmodulin-dependent protein kinase type II subunit delta (Homo sapiens) (Q13557 whole entry): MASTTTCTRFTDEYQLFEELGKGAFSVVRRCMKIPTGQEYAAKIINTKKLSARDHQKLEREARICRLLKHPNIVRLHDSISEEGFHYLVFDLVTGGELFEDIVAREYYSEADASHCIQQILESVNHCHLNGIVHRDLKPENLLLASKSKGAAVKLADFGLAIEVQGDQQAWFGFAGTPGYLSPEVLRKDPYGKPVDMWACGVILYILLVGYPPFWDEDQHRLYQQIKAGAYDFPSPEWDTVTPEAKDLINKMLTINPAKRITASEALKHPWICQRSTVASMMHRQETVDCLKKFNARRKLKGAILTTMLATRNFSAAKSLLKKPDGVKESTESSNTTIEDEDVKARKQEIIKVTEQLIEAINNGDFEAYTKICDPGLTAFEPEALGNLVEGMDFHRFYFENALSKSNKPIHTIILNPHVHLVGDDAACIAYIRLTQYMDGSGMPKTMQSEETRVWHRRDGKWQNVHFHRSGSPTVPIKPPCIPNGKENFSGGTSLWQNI
Sequence of RAF proto-oncogene serine/threonine-protein kinase (Homo sapiens) (P04049 whole entry, the tested form may be a part): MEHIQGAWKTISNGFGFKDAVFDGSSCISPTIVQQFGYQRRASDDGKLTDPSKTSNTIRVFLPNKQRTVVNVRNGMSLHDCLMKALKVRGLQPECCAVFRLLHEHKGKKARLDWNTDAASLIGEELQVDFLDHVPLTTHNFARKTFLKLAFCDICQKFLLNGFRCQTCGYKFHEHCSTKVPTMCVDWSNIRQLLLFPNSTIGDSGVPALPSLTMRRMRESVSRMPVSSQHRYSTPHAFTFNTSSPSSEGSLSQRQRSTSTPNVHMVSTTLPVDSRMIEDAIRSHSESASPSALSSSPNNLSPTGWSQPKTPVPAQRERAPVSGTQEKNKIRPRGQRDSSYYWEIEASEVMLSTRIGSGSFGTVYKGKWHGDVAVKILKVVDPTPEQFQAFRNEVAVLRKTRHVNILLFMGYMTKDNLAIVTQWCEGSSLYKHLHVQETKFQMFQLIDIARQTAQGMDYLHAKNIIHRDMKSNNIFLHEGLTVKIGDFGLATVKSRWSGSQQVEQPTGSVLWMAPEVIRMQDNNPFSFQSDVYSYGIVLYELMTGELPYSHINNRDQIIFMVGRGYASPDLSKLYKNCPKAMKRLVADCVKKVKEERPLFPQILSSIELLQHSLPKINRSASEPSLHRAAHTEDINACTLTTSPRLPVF
Sequence of Tyrosine-protein kinase BTK (Homo sapiens) (Q06187 whole entry): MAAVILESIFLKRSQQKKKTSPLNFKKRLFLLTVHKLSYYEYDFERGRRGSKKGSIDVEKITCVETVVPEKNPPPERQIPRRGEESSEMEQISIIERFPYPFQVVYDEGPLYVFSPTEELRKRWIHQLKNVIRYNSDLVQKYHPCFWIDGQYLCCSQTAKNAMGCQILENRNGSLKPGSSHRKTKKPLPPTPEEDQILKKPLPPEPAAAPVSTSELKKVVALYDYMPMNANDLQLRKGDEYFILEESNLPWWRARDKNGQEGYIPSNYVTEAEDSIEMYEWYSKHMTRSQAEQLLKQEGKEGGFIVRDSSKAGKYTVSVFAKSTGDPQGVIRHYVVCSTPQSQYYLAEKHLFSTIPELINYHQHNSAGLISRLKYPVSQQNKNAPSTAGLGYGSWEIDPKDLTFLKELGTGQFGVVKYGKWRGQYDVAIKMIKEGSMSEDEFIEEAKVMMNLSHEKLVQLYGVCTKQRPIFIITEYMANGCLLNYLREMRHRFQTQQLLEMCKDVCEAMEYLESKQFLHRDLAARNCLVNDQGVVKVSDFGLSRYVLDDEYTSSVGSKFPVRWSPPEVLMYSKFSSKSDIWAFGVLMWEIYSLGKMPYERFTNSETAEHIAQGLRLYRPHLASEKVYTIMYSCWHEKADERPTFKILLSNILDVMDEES
Sequence of Casein kinase I isoform delta (Homo sapiens) (P48730 whole entry, looked up, the tested form may be a part, canonical isoform): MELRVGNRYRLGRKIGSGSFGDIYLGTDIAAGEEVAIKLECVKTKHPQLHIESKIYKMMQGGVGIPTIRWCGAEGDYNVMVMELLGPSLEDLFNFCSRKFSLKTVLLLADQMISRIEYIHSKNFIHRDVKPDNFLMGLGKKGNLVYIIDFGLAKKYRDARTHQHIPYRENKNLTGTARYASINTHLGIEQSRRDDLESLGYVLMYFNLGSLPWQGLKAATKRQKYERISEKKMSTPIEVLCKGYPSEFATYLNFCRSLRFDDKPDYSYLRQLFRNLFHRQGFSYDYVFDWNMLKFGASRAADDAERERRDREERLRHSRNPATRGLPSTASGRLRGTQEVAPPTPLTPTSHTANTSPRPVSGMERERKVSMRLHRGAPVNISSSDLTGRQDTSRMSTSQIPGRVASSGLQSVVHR
Sequence of Tyrosine-protein kinase Fer (Homo sapiens) (P16591 whole entry, looked up, the tested form may be a part): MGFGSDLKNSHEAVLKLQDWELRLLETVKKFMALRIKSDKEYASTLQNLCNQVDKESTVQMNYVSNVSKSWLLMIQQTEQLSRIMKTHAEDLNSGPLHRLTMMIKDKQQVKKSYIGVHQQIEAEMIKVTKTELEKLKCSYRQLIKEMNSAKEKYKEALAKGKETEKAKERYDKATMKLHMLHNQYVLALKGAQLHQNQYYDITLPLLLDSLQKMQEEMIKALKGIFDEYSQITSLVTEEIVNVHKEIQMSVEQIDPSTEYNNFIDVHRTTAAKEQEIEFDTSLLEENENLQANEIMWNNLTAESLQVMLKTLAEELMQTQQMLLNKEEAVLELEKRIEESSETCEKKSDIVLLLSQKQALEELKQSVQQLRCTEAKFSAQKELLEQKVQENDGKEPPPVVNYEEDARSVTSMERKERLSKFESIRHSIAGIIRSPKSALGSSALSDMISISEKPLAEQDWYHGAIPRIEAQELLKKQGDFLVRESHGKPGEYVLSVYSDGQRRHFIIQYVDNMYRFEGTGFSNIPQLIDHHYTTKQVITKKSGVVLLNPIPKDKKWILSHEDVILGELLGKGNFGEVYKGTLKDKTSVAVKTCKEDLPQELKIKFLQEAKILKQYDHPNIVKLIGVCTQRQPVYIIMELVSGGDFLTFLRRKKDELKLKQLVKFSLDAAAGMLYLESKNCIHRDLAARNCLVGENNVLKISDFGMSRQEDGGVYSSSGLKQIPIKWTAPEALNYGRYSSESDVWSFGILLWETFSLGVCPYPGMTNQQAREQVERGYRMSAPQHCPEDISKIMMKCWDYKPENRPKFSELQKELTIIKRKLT

SMILES: Clc1ccc(C2(c3ccc(-c4ncnc5[nH]cnc45)cc3)CCNCC2)cc1
- inhibition [1]: 8.5%

SMILES: c1nc(N2CCOCC2)c2nc[nH]c2n1
- inhibition [2]: 55%
- inhibition [3]: 63.5%

SMILES: NCC1CN(c2ncnc3[nH]c4cnccc4c23)CCO1 (configuration not stated)
- inhibition [4]: 2%

SMILES: NC1CCN(c2ncnc3[nH]ccc23)CC1
- inhibition [5]: 2.5%

SMILES: COC(=O)c1cnc(Nc2cnc(C#N)cn2)cc1NCC1CCNCC1
- inhibition [6]: 4.5%

SMILES: NCC1CCN(c2ncnc3[nH]ccc23)CC1
- inhibition [7]: 1.5%
- inhibition [8]: 2.5%

SMILES: CNCc1ccc(-c2ncnc3[nH]cnc23)cc1
- inhibition [9]: 74%
- inhibition [10]: 29%

SMILES: c1cnc2[nH]ccc2c1
- inhibition [11]: 21%
- inhibition [12]: 64.5%
